Data set [1] relates to fusion mRNA of the ERK2 and the humanized Renilla luciferase (hRluc) gene. Briefly: psiCHECK Dual Luciferase Reporter Assay. The data set is classed as cell-based, mouse. The conditions noted are these: HEK 293 cells cotransfected with psiCHECK plasmid and rAAV plasmid; normalized to 100% of rAAV plasmid lacking shRNA (GFP); n=4. The text has this:
FIGS. 1A-J illustrate expression of green fluorescent protein (GFP) and the knockdown of ERK2 mRNA in the mouse spinal cord dorsal horn (SCDH) at 3 weeks after the intraparenchymal injection of a neurotropic recombinant adeno-associated virus (rAAV) vector expressing ERK2 siRNA. […] Thus, the expression of GFP was not influenced by co-expression of the ERK2 siRNAs. […] Scale bar, 500 μm. In FIG. 1I, ERK2 mRNA expression was quantified from in situ images and plotted in the bar graph as the ratio of the integrated optical density of in situ labeling in the ipsilateral SCDH to that in the contralateral SCDH. Data are the mean±SEM (n=3). […] There was no significant difference in the ratio among the three active siRNA vectors. […] HEK 293 cells were cotransfected with the psiCHECK plasmid (which contains the ERK2-Renilla luciferase fusion gene and the firefly luciferase gene) and with a rAAV plasmid expressing a candidate ERK2 shRNA sequence. rAAV plasmids that yield active siRNAs reduce the expression of Renilla luciferase relative to firefly luciferase, leading to a reduction of the activity ratio. The assay results are the mean±SEM (n=4). The Renilla/firefly signal was normalized to a value of 100% from the results of a concurrent assay containing psiCHECK and a rAAV plasmid that lacked coding for a shRNA sequence (GFP). […]

Data set [2] has as its system ERK2 mRNA. Briefly: Non-radioactive in situ hybridization of ERK2 mRNA in spinal cord dorsal horn after intraparenchymal vector injection. Particulars: 3 weeks after intraparenchymal injection; ipsilateral vs contralateral; listed as MM. The data set is classed as in vivo, mouse. On the procedure: (§1) The viral vectors, ERK2-5, 2-7, 2-8 and MM were micro-injected into the spinal cord dorsal horn (SCDH) as described by South et al. (South et al., 2003). The mice were anesthetized with ketamine/xylazine. A laminectomy was performed to remove part of the dorsal L2 and L3 spinous process and the lumbar area of spinal cord was exposed for intraparenchymal injection (IPI). Three unilateral injections of 1 μl (1-3×10^9 viral particles/μl) were administered 0.5-0.7 mm apart, at a depth of 0.3 mm from the dorsal border and 0.5 mm from the midline, using a glass pipette with a 40-μm-diameter tip attached to a 5 μl Hamilton syringe. The syringe was mounted on a microinjector (David Kopf Instruments, Tujunga, Calif.) attached to a stereotaxic unit (David Kopf Instruments). After the injection, the overlying muscles were closed with 5-0 chromic gut and the skins were closed with wound clips. […]
ERK2 mRNA expression in the SCDH was detected by non-radioactive in situ hybridization as described by (Garraway et al., 2007). […]
(§2) Fluorescent IHC images were captured by a Zeiss LSM 510 laser scanning confocal microscope. […] Quantitative analysis was performed by a blinded observer using Metamorph software (Universal Imaging, Downingtown, Pa.) as described previously (Garraway et al., 2007). […]

The subject of data set [3] is ERK2. Briefly: Western blot of spinal cord dorsal horn: ERK2 and pERK2. Format: in vivo, mouse. Particulars: compared to animals that did not receive intraparenchymal injection of a vector. On the procedure:
as §1, with “syringe.” for “syringe. The syringe was mounted on a microinjector (David Kopf Instruments, Tujunga, Calif.) attached to a stereotaxic unit (David Kopf Instruments). After the injection, the overlying muscles were closed with 5-0 chromic gut and the skins were closed with wound clips.”
(§3) Animals were deeply anesthetized by isoflurane, decapitated and the lumbar spinal cord dorsal horn at the level of L4-L6 were rapidly dissected. […] The protein level of each sample was measured by the BioRad DC assay. […]
(§4) Membranes were incubated with rabbit anti-pERK1/2 antibody (1:1000; 07-362; Cell Signaling Technology, Inc.) in blocking solution overnight at 4° C., washed in TBS with 0.1% Tween-20 (TBST), then incubated with HRP-conjugated anti-rabbit IgG (1:1000, Pierce Biotechnology, Inc., Rockford, Ill.) in blocking solution for 1 hr. […] Ratios of intensity of pERK1/2 or ERK1/2 to β-actin were calculated, normalized to the control samples and subject to statistical analysis. […]

Data set [4] concerns ERK1. Briefly: Western blot of spinal cord dorsal horn: ERK1 and pERK1. Format: in vivo, mouse. Particulars: compared to animals that did not receive intraparenchymal injection of a vector. On the procedure: as §1, with “syringe.” for “syringe. The syringe was mounted on a microinjector (David Kopf Instruments, Tujunga, Calif.) attached to a stereotaxic unit (David Kopf Instruments). After the injection, the overlying muscles were closed with 5-0 chromic gut and the skins were closed with wound clips.”
as §3, §4

Data set [5] concerns spinal cord dorsal horn (SCDH). Description: GFP immunolabeling after rAAV vector injection (extent and cell type of transduction). The data set is classed as in vivo, mouse. The conditions noted are these: confocal fluorescent immunohistochemistry; NeuN, GFAP, OX42 markers. On the procedure: The viral vectors, ERK2-5, 2-7, 2-8 and MM were micro-injected into the spinal cord dorsal horn (SCDH) as described by South et al. (South et al., 2003). The mice were anesthetized with ketamine/xylazine. A laminectomy was performed to remove part of the dorsal L2 and L3 spinous process and the lumbar area of spinal cord was exposed for intraparenchymal injection (IPI). Three unilateral injections of 1 μl (1-3×10^9 viral particles/μl) were administered 0.5-0.7 mm apart, at a depth of 0.3 mm from the dorsal border and 0.5 mm from the midline, using a glass pipette with a 40-μm-diameter tip attached to a 5 μl Hamilton syringe. The syringe was mounted on a microinjector (David Kopf Instruments, Tujunga, Calif.) attached to a stereotaxic unit (David Kopf Instruments). After the injection, the overlying muscles were closed with 5-0 chromic gut and the skins were closed with wound clips. Animals were allowed to recover for three weeks before undergoing behavioral tests, or sacrificed for histological and Western blot analysis.
as §2

Data set [6] has as its system C57BL/6 mice. Briefly: Motor function tests (surface righting, placing/stepping, grasping/climbing). The data set is classed as in vivo, mouse. Particulars: after intraparenchymal injection of vector. As to the method: All behavioral testing was conducted in groups of 10 mice per treatment by a blinded observer. Motor function tests were performed before mechanical stimulus threshold or thermal paw withdrawal threshold were measured (Garraway et al., 2007). No deficits in reflexes for surface righting, placing/stepping and grasping/climbing were found in animals treated with either the control rAAV vector or rAAV viral vectors.

The subject of data set [7] is C57BL/6 mice. Briefly: Acute thermal paw withdrawal threshold. The data set is classed as in vivo, mouse. The conditions noted are these: before vs. at least 3 weeks after vector administration, no CFA. As to the method:
Thermal paw withdrawal threshold was assessed using a thermal nociceptive stimulus apparatus (Hargreaves et al., 1988). Prior to the test, the animals were allowed to acclimate for 30 min to the test chamber on a pre-heated glass plate maintained at 30° C. A radiant thermal stimulus (5.10 amps) was applied to the mid-plantar surface of the hind paw through the glass plate. The latency, in seconds, for the withdrawal of the paw from the heat source was determined automatically. If no response was elicited, the heat source was automatically shut off at 20 sec to prevent tissue injury. A minimum break of 5 min was allowed between each trial. Three to six trials were performed for each paw.

Data set [8] has as its system C57BL/6 mice. Description: Acute mechanical stimulus threshold (von Frey). Particulars: before vs. at least 3 weeks after vector administration, no CFA. The data set is classed as in vivo, mouse. As to the method:
Mechanical stimulus threshold to a non-noxious mechanical stimulus was determined by paw withdrawal to the application of a series of calibrated von Frey filaments to the surface of the hind paws. The animals were placed in a Plexiglas cage with mesh flooring suspended above the researcher and left to acclimate for 30 min. von Frey filaments were applied perpendicularly against the mid-plantar surface of the foot. The “up-down” method of Dixon (Chaplan et al., 1994) was used to determine the value at which paw withdrawal occurred 50% of the time, interpreted as the mechanical threshold.

Data set [9] deals with spinal cord dorsal horn (SCDH). The conditions noted are these: mouse, in vivo.
Experimental: Mice were anesthetized with pentobarbital and then perfused transcardially with 4% paraformaldehyde (PFA) in phosphate buffered saline (PBS) with 1 mM NaF. Fifty mL of fixative was perfused over 5 min by using a peristaltic pump. The spinal cord was dissected and placed in 4% PFA for 1 hr before being transferred to 30% sucrose for cryoprotection for 72 hr. Lumbar spinal cord cryosections of 20-μm thick were obtained from a cryostat (Leica, Bannockburn, Ill.) for IHC and in situ hybridization.
For IHC, the spinal cord sections were incubated in blocking solution (3% normal goat serum, 0.1% Triton X-100 in Tris buffered saline) for 30 min. After washing in Tris buffered saline (TBS), sections were incubated with one or two of the following primary antibodies: rabbit anti-GFP (1:1000; Invitrogen-Molecular Probes Inc, Eugene, Oreg.), rabbit anti-phospho-ERK1/2 (1:1000; Cell Signaling Technology, Inc., Danvers, Mass.), mouse anti-NeuN (1:400; Millipore-Chemicon, Bedford, Mass.), rabbit anti-c-fos (1:2000, Santa Cruz Biotechnology, Santa Cruz, Calif.), rabbit anti-Dynorphin A(1:2000, Bachem, San Carlos, Calif.), mouse anti-GFAP (1:2000; Millipore-Chemicon) and rat anti-OX42 (1:1000, BD Biosciences, San Diego, Calif.) overnight in blocking solution at 4° C. […]
For data set [10], the system named is ERK1. Briefly: Western blot of transfected HEK293 cells: ERK1. The data set is classed as cell-based, human. The text has this:
Separate cultures of an immortalized cell line of human embryonic kidney cells (HEK293) were transfected with three active siRNAs directed against human ERK2. […] The sequences of the three human ERK2 siRNAs (#1, #2, and #3) and the control mismatch siRNA are shown below. The siRNAs were expressed from the rAAV vector. Thus, to generate the siRNA #1, the DNA sequence of the sense strand […] NO:777) was linked to a spacer derived from an miRNA […] ID NO:766) at the 3' end, which was then linked to the corresponding antisense sequence […] NO:778)). Thus, the non-template strand sequence used in the expression cassette for the […] NO:777) siRNA will have the following sequence (SEQ ID NO:779)): [NT] This sequence was placed downstream of an RNA polymerase III (RNA pol III) promoter in the rAAV vector. The vector also contained 6 consecutive dTs in the non-template strand following the SEQ ID NO:779 sequence to stop the transcription.

“Also recorded” adds a separate entry of the source.

For the substance “mm: inactive control mismatch siRNA CCUCGUCAUAAUACUGGGUUU used in HEK293 cells (chemistry not given here)”, the “Renilla/firefly luciferase activity ratio” value in data set [1] is “ineffective”. Moreover, the “ERK2 mRNA level in the ipsilateral SCDH (in situ hybridization)” value in data set [2] is listed as “did not alter; also recorded: no change”. The “expression or phosphorylation of ERK2” value in data set [3] is recorded as “did not have any effect”. Moreover, in [4], the “expression or phosphorylation of ERK1” value is recorded as “did not have any effect”. Besides, the “cellular localization of GFP immunolabeling” value in data set [5] is on record as “colocalized with NeuN”. For the same substance, the “animals with signs of motor deficits” value in data set [6] was “None”. Besides, the heat withdrawal latency entry in data set [7] is on record as “No change”. In [8], the mechanical withdrawal threshold entry is on record as “No change”. For the same substance, in [9], the “gliosis in the spinal cord dorsal horn” value is “no evidence of gliosis” and the neuronal cell loss entry was “no evidence of neuronal cell loss”.
As for “siRNA #1: human ERK2 siRNA (1833-1851) GCAGGAGCUUGUGGAAAUAUU, expressed from the rAAV vector”, the ERK1 expression entry in data set [10] is recorded as “without significantly changing”.
In the case of “siRNA #2: human ERK2 siRNA (884-902) GCUGCAUUCUGGCAGAAAUUU, expressed from the rAAV vector”, in data set [10], the ERK1 expression entry was “without significantly changing”.
Still for that read-out and setting: with “siRNA #3: human ERK2 siRNA (357-375) GUGCUCUGCUUAUGAUAAUUU, expressed from the rAAV vector” the entry was “without significantly changing”.

For the origin of these results see US9506068B2, “Pain treatment using ERK2 inhibitors” (Cornell University, priority 2008, dated 2016).
